Reference: ChEMBL document CHEMBL5465560, “Selectivity Literature for EUbOPEN Chemogenomic Library” (2024)
Each block holds one molecule with its values, some of them ahead of it.

Key:
[1] = molecular target: Ribosomal protein S6 kinase alpha-3 (Homo sapiens, UniProt P51812); test: Selectivity interaction (Kinase panel (literature)) EUB0001199aCl RPS6KA3; details: at 1 µM
[2] = molecular target: Serine/threonine-protein kinase tousled-like 2 (Homo sapiens) (UniProt Q86UE8); test: Selectivity interaction (KinomeScan (DiscoverX)) EUB0001079a TLK2; details: at 1 µM
Sequence of Serine/threonine-protein kinase tousled-like 2 (Homo sapiens) (Q86UE8 whole entry, looked up): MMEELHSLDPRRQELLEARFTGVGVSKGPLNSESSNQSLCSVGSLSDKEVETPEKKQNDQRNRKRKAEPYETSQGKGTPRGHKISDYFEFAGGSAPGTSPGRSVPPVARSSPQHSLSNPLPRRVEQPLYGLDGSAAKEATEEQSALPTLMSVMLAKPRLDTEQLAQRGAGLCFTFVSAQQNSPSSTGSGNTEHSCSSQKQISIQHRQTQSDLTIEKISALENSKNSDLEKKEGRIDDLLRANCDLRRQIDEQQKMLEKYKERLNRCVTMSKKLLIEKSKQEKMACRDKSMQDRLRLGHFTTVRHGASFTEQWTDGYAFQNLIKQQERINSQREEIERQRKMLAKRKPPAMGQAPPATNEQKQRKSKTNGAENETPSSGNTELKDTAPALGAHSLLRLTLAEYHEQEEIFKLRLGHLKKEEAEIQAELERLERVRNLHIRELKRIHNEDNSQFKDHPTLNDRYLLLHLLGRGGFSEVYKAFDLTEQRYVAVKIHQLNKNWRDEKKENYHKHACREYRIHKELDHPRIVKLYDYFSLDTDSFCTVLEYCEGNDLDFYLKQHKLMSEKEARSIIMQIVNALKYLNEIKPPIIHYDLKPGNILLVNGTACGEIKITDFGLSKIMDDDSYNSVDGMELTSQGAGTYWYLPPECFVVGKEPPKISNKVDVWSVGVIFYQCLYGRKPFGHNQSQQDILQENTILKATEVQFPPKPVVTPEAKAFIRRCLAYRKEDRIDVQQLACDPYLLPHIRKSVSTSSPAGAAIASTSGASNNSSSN

[3] = molecular target: T1, Dual specificity protein kinase TTK (Homo sapiens) (UniProt P33981); test: Selectivity interaction (KinomeScan (DiscoverX)) EUB0000618a TTK; details: at 10 µM
T1 sequence (whole entry): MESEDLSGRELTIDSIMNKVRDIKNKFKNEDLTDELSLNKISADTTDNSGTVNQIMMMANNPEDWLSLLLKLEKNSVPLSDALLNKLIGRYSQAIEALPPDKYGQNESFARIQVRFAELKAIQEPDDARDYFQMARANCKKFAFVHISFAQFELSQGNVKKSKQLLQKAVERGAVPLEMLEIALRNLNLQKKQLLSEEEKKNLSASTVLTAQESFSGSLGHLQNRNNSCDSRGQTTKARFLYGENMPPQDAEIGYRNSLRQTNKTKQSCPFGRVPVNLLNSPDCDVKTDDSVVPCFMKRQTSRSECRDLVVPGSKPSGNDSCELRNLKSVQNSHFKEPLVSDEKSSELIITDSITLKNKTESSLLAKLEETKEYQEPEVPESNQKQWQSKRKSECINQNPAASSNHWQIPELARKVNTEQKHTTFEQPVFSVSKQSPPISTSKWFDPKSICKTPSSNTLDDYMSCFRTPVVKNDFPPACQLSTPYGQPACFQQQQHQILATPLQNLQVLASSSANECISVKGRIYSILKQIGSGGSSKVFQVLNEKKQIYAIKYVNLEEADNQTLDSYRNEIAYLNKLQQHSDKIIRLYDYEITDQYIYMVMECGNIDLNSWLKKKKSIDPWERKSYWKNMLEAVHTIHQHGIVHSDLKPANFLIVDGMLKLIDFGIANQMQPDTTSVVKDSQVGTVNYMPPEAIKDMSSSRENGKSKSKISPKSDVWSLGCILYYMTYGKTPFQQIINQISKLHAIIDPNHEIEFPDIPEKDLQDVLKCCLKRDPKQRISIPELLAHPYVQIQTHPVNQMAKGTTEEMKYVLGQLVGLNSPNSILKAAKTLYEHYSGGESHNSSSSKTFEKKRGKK

[4] = molecular target: T2, Rhodopsin kinase GRK7 (Homo sapiens) (UniProt Q8WTQ7); test: Selectivity interaction (KinomeScan (DiscoverX)) EUB0000607a GRK7; details: at 10 µM
T2 sequence (whole entry): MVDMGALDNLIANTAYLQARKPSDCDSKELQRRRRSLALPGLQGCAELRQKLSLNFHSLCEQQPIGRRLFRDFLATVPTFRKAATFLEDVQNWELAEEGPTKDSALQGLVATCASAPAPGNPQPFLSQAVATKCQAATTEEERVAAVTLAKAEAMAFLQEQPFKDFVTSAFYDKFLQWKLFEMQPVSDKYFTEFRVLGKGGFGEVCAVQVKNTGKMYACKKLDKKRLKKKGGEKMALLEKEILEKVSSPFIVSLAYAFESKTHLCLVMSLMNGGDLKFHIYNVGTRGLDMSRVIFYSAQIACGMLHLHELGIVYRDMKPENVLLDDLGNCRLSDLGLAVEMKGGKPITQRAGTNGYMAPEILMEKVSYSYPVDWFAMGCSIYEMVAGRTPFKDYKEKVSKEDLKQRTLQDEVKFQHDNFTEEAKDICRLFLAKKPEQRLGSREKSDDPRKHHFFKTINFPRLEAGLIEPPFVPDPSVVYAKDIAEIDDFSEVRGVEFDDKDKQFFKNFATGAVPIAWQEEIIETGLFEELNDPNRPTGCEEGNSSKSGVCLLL

[5] = molecular target: Serine/threonine-protein kinase PAK 2 (Homo sapiens) (UniProt Q13177); test: Selectivity interaction (KinomeScan (DiscoverX)) EUB0000045b PAK2
Sequence of Serine/threonine-protein kinase PAK 2 (Homo sapiens) (Q13177 whole entry): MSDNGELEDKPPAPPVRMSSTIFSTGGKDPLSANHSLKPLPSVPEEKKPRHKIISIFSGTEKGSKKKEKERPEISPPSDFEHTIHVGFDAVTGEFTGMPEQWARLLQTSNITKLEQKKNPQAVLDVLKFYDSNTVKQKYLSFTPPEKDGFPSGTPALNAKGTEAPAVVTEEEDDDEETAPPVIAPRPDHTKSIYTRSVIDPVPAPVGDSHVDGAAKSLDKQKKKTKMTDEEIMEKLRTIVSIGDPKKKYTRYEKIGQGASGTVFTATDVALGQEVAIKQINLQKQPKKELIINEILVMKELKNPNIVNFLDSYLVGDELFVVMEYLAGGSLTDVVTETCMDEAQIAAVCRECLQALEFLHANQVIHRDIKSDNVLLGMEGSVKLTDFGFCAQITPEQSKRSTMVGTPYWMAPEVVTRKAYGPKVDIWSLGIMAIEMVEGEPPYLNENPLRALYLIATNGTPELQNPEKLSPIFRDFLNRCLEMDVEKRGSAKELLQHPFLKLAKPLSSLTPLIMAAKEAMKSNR

[6] = molecular target: RAC-beta serine/threonine-protein kinase (Homo sapiens) (UniProt P31751); test: Selectivity interaction (KinomeScan (DiscoverX)) EUB0000595a AKT2; details: at 10 µM
[7] = molecular target: T3, Casein kinase II subunit alpha (Homo sapiens, UniProt P68400); test: Selectivity interaction (ActivX KiNativ screen (kinase selectivity in THP-1 cell lysates)) EUB0000639a CSNK2A1; format: subcellular; details: lysate
T3 sequence (P68400 whole entry, looked up): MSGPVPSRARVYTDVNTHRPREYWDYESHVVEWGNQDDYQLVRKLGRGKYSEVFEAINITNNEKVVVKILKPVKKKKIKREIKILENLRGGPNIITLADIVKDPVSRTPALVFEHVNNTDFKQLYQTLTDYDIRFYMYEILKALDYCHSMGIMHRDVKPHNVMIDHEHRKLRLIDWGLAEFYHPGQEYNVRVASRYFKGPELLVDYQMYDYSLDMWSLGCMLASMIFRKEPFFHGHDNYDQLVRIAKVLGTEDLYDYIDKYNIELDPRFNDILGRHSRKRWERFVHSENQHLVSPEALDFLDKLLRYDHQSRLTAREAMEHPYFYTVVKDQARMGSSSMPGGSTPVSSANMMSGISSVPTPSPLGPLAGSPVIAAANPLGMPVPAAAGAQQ

[8] = molecular target: T4, Serine/threonine-protein kinase TBK1 (Homo sapiens) (UniProt Q9UHD2); test: Selectivity interaction (ActivX KiNativ screen (kinase selectivity in THP-1 cell lysates)) EUB0000639a TBK1; format: subcellular; details: lysate, at 1 µM
T4 sequence (whole entry): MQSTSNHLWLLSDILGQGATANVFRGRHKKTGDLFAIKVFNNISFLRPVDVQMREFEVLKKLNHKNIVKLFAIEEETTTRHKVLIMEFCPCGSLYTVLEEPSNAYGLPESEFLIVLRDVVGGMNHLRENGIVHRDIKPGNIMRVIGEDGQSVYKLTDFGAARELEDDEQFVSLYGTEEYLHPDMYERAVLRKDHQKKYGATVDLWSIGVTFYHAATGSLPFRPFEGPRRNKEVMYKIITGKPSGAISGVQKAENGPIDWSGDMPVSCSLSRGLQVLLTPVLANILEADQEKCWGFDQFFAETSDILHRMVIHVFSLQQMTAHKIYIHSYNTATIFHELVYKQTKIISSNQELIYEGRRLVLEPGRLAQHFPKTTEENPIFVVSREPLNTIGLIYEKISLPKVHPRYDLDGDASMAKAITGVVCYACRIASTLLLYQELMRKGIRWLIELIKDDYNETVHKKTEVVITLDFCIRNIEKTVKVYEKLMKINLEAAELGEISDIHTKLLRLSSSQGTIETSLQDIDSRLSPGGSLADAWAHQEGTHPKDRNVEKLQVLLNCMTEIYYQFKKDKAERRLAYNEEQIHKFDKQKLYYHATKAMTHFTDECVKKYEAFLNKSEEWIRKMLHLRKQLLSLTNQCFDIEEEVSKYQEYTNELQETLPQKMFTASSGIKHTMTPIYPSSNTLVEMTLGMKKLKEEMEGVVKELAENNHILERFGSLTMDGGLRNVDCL

[9] = molecular target: Ribosomal protein S6 kinase beta-1 (Homo sapiens, UniProt P23443); test: Selectivity interaction (KinomeScan (DiscoverX)) EUB0000229b RPS6KB1; details: at 10 µM
Sequence of Ribosomal protein S6 kinase beta-1 (P23443 whole entry, looked up): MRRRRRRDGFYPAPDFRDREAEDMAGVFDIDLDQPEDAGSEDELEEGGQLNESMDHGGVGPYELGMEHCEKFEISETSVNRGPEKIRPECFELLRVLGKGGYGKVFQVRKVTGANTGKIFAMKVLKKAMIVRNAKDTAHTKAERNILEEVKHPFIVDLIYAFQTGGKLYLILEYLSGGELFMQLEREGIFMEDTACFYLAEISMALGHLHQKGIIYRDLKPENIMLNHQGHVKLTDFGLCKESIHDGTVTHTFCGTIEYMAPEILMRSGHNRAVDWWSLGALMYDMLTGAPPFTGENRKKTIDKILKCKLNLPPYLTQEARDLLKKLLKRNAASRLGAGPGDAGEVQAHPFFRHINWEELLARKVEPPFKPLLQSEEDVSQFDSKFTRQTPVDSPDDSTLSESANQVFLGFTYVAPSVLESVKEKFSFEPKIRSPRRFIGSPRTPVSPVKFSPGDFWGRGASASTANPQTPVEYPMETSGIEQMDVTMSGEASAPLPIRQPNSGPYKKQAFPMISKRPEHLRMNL

[10] = molecular target: STE20-like serine/threonine-protein kinase (Homo sapiens, UniProt Q9H2G2); test: Selectivity interaction (Competition-binding assay (DiscoverX)) EUB0000229b SLK
Sequence of STE20-like serine/threonine-protein kinase (Q9H2G2 whole entry): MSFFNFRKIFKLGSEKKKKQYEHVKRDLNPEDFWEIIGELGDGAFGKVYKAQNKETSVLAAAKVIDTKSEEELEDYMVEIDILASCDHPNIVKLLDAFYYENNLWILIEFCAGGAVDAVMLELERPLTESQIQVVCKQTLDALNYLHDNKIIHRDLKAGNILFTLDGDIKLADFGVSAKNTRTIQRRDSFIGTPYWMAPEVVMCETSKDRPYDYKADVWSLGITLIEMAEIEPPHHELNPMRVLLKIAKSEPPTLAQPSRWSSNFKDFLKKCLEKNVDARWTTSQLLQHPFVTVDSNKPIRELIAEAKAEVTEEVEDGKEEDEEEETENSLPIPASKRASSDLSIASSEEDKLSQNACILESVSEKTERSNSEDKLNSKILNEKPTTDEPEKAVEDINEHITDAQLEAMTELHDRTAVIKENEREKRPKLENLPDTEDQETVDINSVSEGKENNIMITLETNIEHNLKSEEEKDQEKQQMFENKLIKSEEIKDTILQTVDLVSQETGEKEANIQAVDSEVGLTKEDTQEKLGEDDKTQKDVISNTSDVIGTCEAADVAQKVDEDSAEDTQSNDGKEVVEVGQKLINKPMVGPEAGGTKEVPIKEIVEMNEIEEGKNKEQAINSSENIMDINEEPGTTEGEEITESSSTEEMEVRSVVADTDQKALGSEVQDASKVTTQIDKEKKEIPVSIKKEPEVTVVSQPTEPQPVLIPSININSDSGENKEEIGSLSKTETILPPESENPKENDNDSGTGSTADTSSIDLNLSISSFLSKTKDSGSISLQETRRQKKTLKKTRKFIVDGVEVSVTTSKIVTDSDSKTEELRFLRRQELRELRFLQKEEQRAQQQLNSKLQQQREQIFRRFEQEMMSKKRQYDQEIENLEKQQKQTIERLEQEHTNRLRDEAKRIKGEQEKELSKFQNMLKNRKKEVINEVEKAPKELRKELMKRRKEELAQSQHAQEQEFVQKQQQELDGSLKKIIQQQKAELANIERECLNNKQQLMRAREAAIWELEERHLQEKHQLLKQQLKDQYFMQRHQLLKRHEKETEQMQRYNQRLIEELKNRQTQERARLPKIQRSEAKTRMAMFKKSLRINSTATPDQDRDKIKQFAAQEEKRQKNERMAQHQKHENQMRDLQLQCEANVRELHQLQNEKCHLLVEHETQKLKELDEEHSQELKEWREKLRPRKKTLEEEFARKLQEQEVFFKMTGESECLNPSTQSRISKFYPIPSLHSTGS

[11] = molecular target: Mitogen-activated protein kinase 9 (Homo sapiens, UniProt P45984); test: Selectivity interaction (ProQinase) EUB0000171b MAPK9
Sequence of Mitogen-activated protein kinase 9 (P45984 whole entry, looked up): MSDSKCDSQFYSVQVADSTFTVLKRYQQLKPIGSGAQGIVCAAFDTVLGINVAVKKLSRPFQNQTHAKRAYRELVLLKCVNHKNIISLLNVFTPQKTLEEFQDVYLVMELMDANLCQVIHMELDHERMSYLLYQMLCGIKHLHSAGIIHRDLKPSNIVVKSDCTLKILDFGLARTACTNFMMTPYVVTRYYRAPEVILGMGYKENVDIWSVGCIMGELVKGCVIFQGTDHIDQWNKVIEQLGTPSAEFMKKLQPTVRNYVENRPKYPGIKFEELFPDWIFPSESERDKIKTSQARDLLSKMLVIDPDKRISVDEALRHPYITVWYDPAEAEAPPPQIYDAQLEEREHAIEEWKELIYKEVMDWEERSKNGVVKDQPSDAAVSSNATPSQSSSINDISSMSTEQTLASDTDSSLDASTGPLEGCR

[12] = system: Epidermal growth factor receptor (Homo sapiens), P00533 [UNDEFINED MUTATION]; test: Selectivity interaction (KinomeScan (DiscoverX)) EUB0001049a EGFR; details: at 1 µM
[13] = molecular target: T3, Casein kinase II subunit alpha; test: Selectivity interaction (KinomeScan (DiscoverX)) EUB0000666a CSNK2A1; details: at 10 µM

Sequence of Ribosomal protein S6 kinase alpha-3 (P51812 whole entry): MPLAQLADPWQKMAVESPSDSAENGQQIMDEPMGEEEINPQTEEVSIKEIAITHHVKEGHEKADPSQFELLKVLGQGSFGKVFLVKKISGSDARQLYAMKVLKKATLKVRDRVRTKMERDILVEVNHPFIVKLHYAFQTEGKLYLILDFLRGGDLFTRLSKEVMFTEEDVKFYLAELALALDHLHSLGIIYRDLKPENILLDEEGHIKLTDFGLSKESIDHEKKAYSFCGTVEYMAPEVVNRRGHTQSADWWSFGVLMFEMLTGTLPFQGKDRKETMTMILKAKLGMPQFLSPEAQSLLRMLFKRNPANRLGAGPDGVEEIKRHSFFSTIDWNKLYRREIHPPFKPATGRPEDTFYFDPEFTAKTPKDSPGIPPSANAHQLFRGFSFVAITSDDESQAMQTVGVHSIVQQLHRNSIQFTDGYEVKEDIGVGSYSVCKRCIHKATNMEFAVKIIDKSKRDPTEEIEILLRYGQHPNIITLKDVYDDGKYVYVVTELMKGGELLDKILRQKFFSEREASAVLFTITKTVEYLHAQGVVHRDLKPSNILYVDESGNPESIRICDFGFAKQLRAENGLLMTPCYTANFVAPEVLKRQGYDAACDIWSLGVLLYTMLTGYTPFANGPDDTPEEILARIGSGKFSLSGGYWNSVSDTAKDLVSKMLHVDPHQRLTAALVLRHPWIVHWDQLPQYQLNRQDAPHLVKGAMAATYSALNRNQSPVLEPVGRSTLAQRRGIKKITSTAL

- % of inhibition [1]: 0%
Compound: CN1Cc2nccc(-c3cn(C)nc3-c3ccc(F)cc3)c2C1=O

Compound: Nc1cnc(N2CCc3cc(S(=O)(=O)Nc4c(F)cc(Cl)cc4F)cc(N4CCCC4=O)c32)nc1 [TP-020n]
- % of control [2]: 79%

Compound: O[C@H]1CC[C@H](Nc2ncc3nc(Nc4c(F)cc(F)cc4F)n([C@H]4CCOC4)c3n2)CC1
- % of control [3]: 85%

Compound: CNC(=O)Nc1ccc(-c2nc(N3CC4CCC(C3)O4)c3cnn(C4CCC5(CC4)OCCO5)c3n2)cc1
- % of control [4]: 91%

Compound: C=CC(=O)Nc1cc(-n2c(=O)ccc3cnc4ccc(-c5ccc(NS(C)(=O)=O)cc5)cc4c32)ccc1C
- % of control ([5]; at 1 µM): 78%
- % of control ([5]; at 10 µM): 92%

Compound: COCC(=O)NC/C=C/c1ccc2ncnc(Nc3ccc(Oc4ccc(C)nc4)c(C)c3)c2c1 [CP-724714]
- % of control [6]: 100%

- % of inhibition ([7]; at 1 µM): 25.8%
- % of inhibition ([7]; at 5 µM): -6.9%
- % of inhibition [8]: 7.6%
Compound: CC[C@@H]1[C@H](F)C(=O)N[C@@H]1COc1nccc2cc(C(N)=O)c(OC)cc12 [ZIMLOVISERTIB]

Compound: COc1cc(N(C)c2ccnc3ccc(C(F)(F)F)cc23)cc(OC)c1OC
- % binding [9]: 71%
- Kd [10]: > 10 µM

- % of control ([11]; at 1 µM): 8%
- % of control ([11]; at 5 µM): 1%
Compound: C=CC(=O)Nc1cccc(C(=O)Nc2ccc(Nc3cc(-c4[nH]c(SC)nc4C)ccn3)cc2)c1

Compound: COc1cc(Nc2nc(C)cc(-c3cnn4nc(OC)ccc34)n2)cc(C(F)(F)F)c1
- % of control [12]: 83%

Compound: O=C(NOC[C@H](O)CO)c1ccc(F)c(F)c1Nc1ccc(I)cc1F
- % of control [13]: 77%
